Like-named read-outs stand apart in the source and are kept apart here.

Here are results for 6 molecules from US5171851A, “Imidazole substituted benzoxazine or benzothiazine derivatives” (Dong-A Pharm. Co., Ltd., priority 1990, dated 1992).

Assay [1] has as its system anesthetized cats. As to the kind of experiment: cardiotonic effect on anesthetized cats. The class given is in vivo, cat. The settings on record: Felis catus; for change in vivo at 0.01 mg/kg: 0.01 mg/Kg iv; for change in vivo at 0.03 mg/kg: 0.03 mg/Kg iv; for change in vivo at 0.1 mg/kg: 0.1 mg/Kg iv. On the procedure: Determination of cardiotonic effect on anesthetized cats: Male cats weighing about 3 kg were anesthetized with sodium pentobarbital (30 mg/kg, i.p.). The same anesthetic was infused intravenously at the does of 4 mg/kg/hr in order to maintain the anesthetic state and mechanically ventilated through a cuffed endotracheal tube, chest was opened by a midline incision and a catheter for measuring left ventricular pressure was inserted through apex into left ventricle and the left ventricular pressure was measured. LVdP/dt was determined by use of diffentiator from the left ventricular pressure. Systemic blood pressure was measured by the left femoral artery by a pressure transducer and heart rate was measured by a cardiotachometer triggered by blood pressure pulses. Test compound was injected into the femoral vein by use of cannule. After completion of the surgical procedures, the cats were allowed to recover about 30 minutes before drug administration. These compounds were dissolved in 0.9% physiological saline and diluted with saline. Solvent such as DMSO or DMF was also used, if necessary. Test compound of 0.1 ml/kg was used. Detailed method was reporated in J. Med. Chem. 30. 1279-87(1987).

Assay [2] has as its system blood perfused papillary muscle preparation. As to the kind of experiment: contractile power on blood perfused papillary muscle preparation. The settings on record: for activation at 0.01 mg / activation at 0.03 mg / activation at 0.003 mg / activation at 0.001 mg: Canis lupus familiaris, read-out: change of contractivity (%); for activation at 0.01 mg: dose 10.0 ug; for activation at 0.03 mg: dose 30.0 ug; for activation at 0.003 mg: dose 3.0 ug; for ED 30 (developed tension of papillary muscle): least-square method; for activation at 0.001 mg: dose 1.0 ug. Set-up: species or system dog. On the procedure:
Determination of contractile power on blood perfused papillary muscle preparation:
Dogs of either sex weighing 7-12 kg were anesthetized with sodium pentobarbital (30 mg/kg, i.v.). Heparin of 1000 unit/kg was administered to each animal intravenously. The animals were exsanguinated and heart was removed. The preparation was perfused through the cannulated anterior septal artery (ASA) with arterial blood from a donor dog at constant pressure of about […]. Donor dogs were anesthetized with sodium pentobarbital (30 mg/kg, i.v.). Heparin of 1000 units/kg was administered intravenously. The papillary muscle was stimulated with rectangular pulses of 5- ms duration and about 1.5 times the threshold voltage at a rate of 120 stimuli/min through bipolar electrodes. Resting tension was made to 2 g. The developed tension of papillary muscle was determined by Isometric tresducer. Detailed method was reporated by Matsumoto in Am J. Physiol. 218, 1459-1463 (1970). Test compound at the doses of 10-30 ul was injected in flowing blood in the gum tube connected to catheter. The inotropic effect of the test compounds was shown by change percent of developed tension compared with that prior to the administration of the test compounds.

Assay [3] concerns blood-perfused sino-atrial preparation. The assay can be described thus: sinus rate on blood-perfused sino-atrial preparation. Set-up: species or system dog. The settings on record: for activation at 0.003 mg / activation at 0.001 mg / activation at 0.01 mg / activation at 0.03 mg: Canis lupus familiaris, read-out: change of sinus rate (%); for activation at 0.003 mg: dose 3.0 ug; for activation at 0.01 mg: dose 10.0 ug; for activation at 0.03 mg: dose 30.0 ug. On the procedure: Determination of sinus rate on blood-perfused sino-atrial preparation: Mongrel gods of either sex weighing 7-12 kg were anesthetized with sodium pentoba rbital (30 mg/kg i.v.). Heparin ob 1000 unit/kg was administered to each animal intravenously and the animals were exsanguinated. Heart was removed and put in Krebs-Henseleit solution. Catheter was inserted into blood vessel between right coronary artery and SA nodes. Right atrium and catheter were together removed. Blood supplied from carotid artery of donor dog of either sex weighing 15-25 kg, was supplied to blood vessel cather from right coronary artery and SA node under constant blood pressure of 100 mmHG by use of Peristaltic pump. The resting tension of right atrial muscle was made to 2g. The sinus rate triggered by spontaneous contraction of atrial muscle was determined on Narco physiograph Narcotrace 4). Detailed method was reported by S. Chiba, et al. in Japanese Pharmacology 25, 433-439(1975). Doses of test compounds were injected into flowing blood in gum tube connected to the near part of the catheter inserted into right coronary artery. The effects on sinus rate were shown as percent compared with the sinus ratio prior to the injection of the test compounds.

With `Cc1cn(-c2cc(C)c3c(c2)CSC(=S)N3)cn1` [8-methyl-6-(4-methylimidazol-1-yl)-(4H)-3,1-benzothiazin-2-thione], the change in vivo at 0.01 mg/kg is 0% in assay [1] (read-out: HR (%)); 6% in assay [1] (read-out: LV dp/dt (%)); 1.2% in assay [1] (read-out: LVP (%)); -2.3% in assay [1] (read-out: SBP (%)); -5.1% in assay [1] (read-out: dBP); -3.3% in assay [1] (read-out: mBP (%)). Besides, the change in vivo at 0.03 mg/kg in assay [1] (read-out: HR (%)) is 1.6%; in assay [1] (read-out: LV dp/dt (%)), 20%; in assay [1] (read-out: LVP (%)), 1.8%; in assay [1] (read-out: SBP (%)) it was -2.3%; in assay [1] (read-out: dBP) it was -7.7%; in assay [1] (read-out: mBP (%)), -5.3%. The change in vivo at 0.1 mg/kg in assay [1] (read-out: HR (%)) was 10.9%; in assay [1] (read-out: LV dp/dt (%)), 53.3%; in assay [1] (read-out: LVP (%)), 2%; in assay [1] (read-out: SBP (%)), -3.1%; in assay [1] (read-out: dBP), -11.5%; in assay [1] (read-out: mBP (%)) it was -7.6%.
As to `O=C1Nc2ccc(-n3ccnc3)cc2CS1` [6-(imidazol-1-yl)-(4H)-3,1-benzothiazin-2-one], the activation at 0.01 mg in assay [2] was 10.7%. In assay [2], the activation at 0.03 mg is 22.7%. Moreover, the change in vivo at 0.01 mg/kg in assay [1] (read-out: HR (%)) is 1.6%; in assay [1] (read-out: LV dp/dt (%)) it was 0%; in assay [1] (read-out: LVP (%)), 0%; in assay [1] (read-out: SBP (%)), -2.4%; in assay [1] (read-out: dBP), 0%; in assay [1] (read-out: mBP (%)) it was -1.2%. In addition, the change in vivo at 0.03 mg/kg was 4.7% in assay [1] (read-out: HR (%)); 20% in assay [1] (read-out: LV dp/dt (%)); 9.9% in assay [1] (read-out: LVP (%)); -4.8% in assay [1] (read-out: SBP (%)); -7.8% in assay [1] (read-out: dBP); -5.8% in assay [1] (read-out: mBP (%)). The change in vivo at 0.1 mg/kg is 7% in assay [1] (read-out: HR (%)); 39.6% in assay [1] (read-out: LV dp/dt (%)); 18.9% in assay [1] (read-out: LVP (%)); -19.1% in assay [1] (read-out: SBP (%)); -19.1% in assay [1] (read-out: dBP); -19.6% in assay [1] (read-out: mBP (%)).
As to `Cc1cn(-c2cc(C)c3c(c2)CSC(=O)N3)cn1` [8-methyl-6-(4-methylimidazol-1-yl)(4H)-3,1-benzothiazin-2-one], the activation at 0.003 mg in assay [2] came out at 26.5%; in assay [3], 3.3%. Besides, the “ED 30 (developed tension of papillary muscle)” value turned out to be 5.0 µg in assay [2] and 0.6 µg in assay [2] (listed as 8-methyl-6-(4-methylimidazol-1-)-(4H)-3,1-benzothiazin-2-one). Also, the “change of sinus rate (%)” value is given as “+3.5%” in assay [3] (at the ED 30 dose); “+7.1%” in assay [3] (at the ED 30 dose, listed as 8-methyl-6-(4-methylimidazol-1-)-(4H)-3,1-benzothiazin-2-one); “+2.5%” in assay [3] (dose 0.1 ug); “+1.6%” in assay [3] (dose 0.3 ug); “+2.5%” in assay [3] (dose 1.0 ug). Besides, the change in vivo at 0.01 mg/kg in assay [1] (read-out: HR (%)) was found to be 4.2%; in assay [1] (read-out: LV dp/dt (%)), 33.3%; in assay [1] (read-out: LVP (%)), 3.3%; in assay [1] (read-out: SBP (%)) it was 0%; in assay [1] (read-out: dBP), 0%; in assay [1] (read-out: mBP (%)) it was 0%. The change in vivo at 0.03 mg/kg in assay [1] (read-out: HR (%)) is 7.3%; in assay [1] (read-out: LV dp/dt (%)) it was 58.4%; in assay [1] (read-out: LVP (%)), 5.7%; in assay [1] (read-out: SBP (%)), -3.8%; in assay [1] (read-out: dBP) it was -4%; in assay [1] (read-out: mBP (%)), -4.5%. In addition, the change in vivo at 0.1 mg/kg in assay [1] (read-out: HR (%)) was 12.6%; in assay [1] (read-out: LV dp/dt (%)), 75%; in assay [1] (read-out: LVP (%)), 8.8%; in assay [1] (read-out: SBP (%)), -6.5%; in assay [1] (read-out: dBP) it was -12%; in assay [1] (read-out: mBP (%)) it was -16.1%.
In the case of `CCc1nc(C)cn1-c1ccc2c(c1)COC(=O)N2` [6-(2-ethyl-4-methylimidazol-1-yl)-(4H)-3,1-benzoxazin-2-one], in assay [2], the activation at 0.001 mg turned out to be 0.68%, the activation at 0.003 mg worked out at 3.45%, the activation at 0.01 mg stood at 12.5% and the activation at 0.03 mg came out at 14.7%. For the same molecule, the activation at 0.001 mg in assay [3] (dose 1.0 ug) came out at 0%. Also, in assay [3], the activation at 0.003 mg was found to be 0%, the activation at 0.01 mg was determined as 0.83% and the activation at 0.03 mg stood at 1.65%. The “change of sinus rate (%)” value in assay [3] (at the ED 30 dose) is on record as “+6.82%”.
As for `S=C1Nc2ccc(-n3ccnc3)cc2CS1` [6-(imidazol-1-yl)-(4H)-3,1-benzothiazin-2-thione], the change in vivo at 0.01 mg/kg in assay [1] (read-out: HR (%)) was -1.1%; in assay [1] (read-out: LV dp/dt (%)), 8.3%; in assay [1] (read-out: LVP (%)) it was 2%; in assay [1] (read-out: SBP (%)) it was 2%; in assay [1] (read-out: dBP), -3.2%; in assay [1] (read-out: mBP (%)), -2%. The change in vivo at 0.03 mg/kg was -0.8% in assay [1] (read-out: HR (%)); 16.6% in assay [1] (read-out: LV dp/dt (%)); 4% in assay [1] (read-out: LVP (%)); 3% in assay [1] (read-out: SBP (%)); -3.3% in assay [1] (read-out: dBP); 0% in assay [1] (read-out: mBP (%)). Also, the change in vivo at 0.1 mg/kg in assay [1] (read-out: HR (%)) is 0.6%; in assay [1] (read-out: LV dp/dt (%)) it was 25%; in assay [1] (read-out: LVP (%)), 5.7%; in assay [1] (read-out: SBP (%)), 3%; in assay [1] (read-out: dBP), -7.4%; in assay [1] (read-out: mBP (%)) it was -3.6%.
As to `Cc1cn(-c2ccc3c(c2)COC(=O)N3)c(C)n1` [6-(2,4-dimethylimidazol-1-yl)-(4H)-3,1-benzoxazin-2-one], in assay [2], the activation at 0.001 mg turned out to be 0%, the activation at 0.003 mg stood at 3.7%, the activation at 0.01 mg was 10.3% and the activation at 0.03 mg was 15.2%. For the same molecule, in assay [3] (dose 1.0 ug), the activation at 0.001 mg worked out at 0%. For the same molecule, in assay [3], the activation at 0.003 mg was 0%, the activation at 0.01 mg came to 0% and the activation at 0.03 mg amounted to 1.67%. In assay [3] (at the ED 30 dose), the “change of sinus rate (%)” value is reported as “+2.56%”.
